Source: US20260274892A1, “MACROCYCLIC BROAD SPECTRUM ANTIBIOTICS” (RQx Pharmaceuticals, Inc., priority 2017, published 2026)

System: Escherichia coli ATCC 25922
Assay: Minimum inhibitory concentration (MIC), CLSI broth micro-dilution, E. coli
Format: cell-based
Conditions: Escherichia coli, ATCC25922, 22 h, Table 6, cation adjusted Mueller Hinton Broth + 0.002% Tween-80, 35° C.
Method: In vitro antimicrobial activity of each compound was determined by measuring minimal inhibitor concentrations (MICs) using the broth micro-dilution technique as approved by the Clinical and Laboratory Standards Institute (CLSI) (Methods for Dilution Antimicrobial Susceptibility Tests for Bacteria that Grow Aerobically; Approved Standard-Eighth Edition. CLSI document M07-A8. Wayne, PA: Clinical and Laboratroy Standards; 2009). Antibacterial activity was measure against two strains of bacteria: a Methicillin Resistant Staphylococcus aureus strain USA 200, (S. aureus) and Escherichia coli ATCC 25922 (E. coli), a clinically relevant Gram-negative strain. Cells were inoculated onto plates of Trypyticase Soy Agar or Luria Agar respectively and grown at 35° C. for 20 hours. Inocula suspensions were prepared by scraping cells into 1 mL of testing media (cation adjusted Mueller Hinton Broth supplemented with 0.002% v/v Tween-80) and diluting to a final OD600nm of 0.01.
Test compounds were prepared in DMSO at a concentration of 10 mg/mL. In protocol 1, the compound stocks were diluted into testing media at a concentration of 64 µg/ml and serial 2-fold dilutions were made in the same media, in 96-well U bottom microtiter dishes, for a total of 10 compound concentrations. In protocol 2, the compound stocks were diluted into testing media at a concentration of 4 µg/mL and serial 2-fold dilutions were made in the same media, in 96-well U bottom microtiter dishes, for a total of 10 compound concentrations. In protocol 3, compound stocks were diluted into testing media at a concentration of 0.5 μg/mL, with serial 2-fold dilutions conducted as described above. In protocol 4, compound stocks were diluted into testing media at a concentration of […], with serial 2-fold dilutions conducted as described above. Inocula suspensions were added to the 2-fold serial dilutions of test compounds to a final density of GD OD600nm of 0.0005 and incubated at 35° C. for 22 hours.

SMILES | MIC
Cc1nc(-c2ccc(C3CCCCC3)cc2)nc(C)c1C(=O)N[C@@H](CCN)C(=O)N(C)[C@@H]1C(=O)N[C@@H](C)C(=O)N[C@H](C(=O)NCC#N)Cc2ccc(OCCN)c(c2)-c2cc1ccc2OCCN (racemic) [Compound 304, rac-(8S,11S,14S)-3,18-bis(2-aminoethoxy)-N-(cyanomethyl)-11-methyl-14-[methyl-[rac-(2S)-4-amino-2-[[2-(4-cyclohexylphenyl)-4,6-dimethyl-pyrimidine-5-carbonyl]amino]butanoyl]amino]-10,13-dioxo-9,12-diazatricyclo[13.3.1.12,6]icosa-1(18),2(20),3,5,15(19),16-hexaene-8-carboxamide] | 0.13 µM
Cc1nc(-c2ccc(C3CCCCCC3)cc2)nc(C)c1C(=O)N[C@@H](CCN)C(=O)N(C)[C@@H]1C(=O)N[C@@H](C)C(=O)N[C@H](C(=O)NCC#N)Cc2ccc(OCCN)c(c2)-c2cc1ccc2OCCN (racemic) [Compound 305, rac-(8S,11S,14S)-3,18-bis(2-aminoethoxy)-N-(cyanomethyl)-11-methyl-14-[methyl-[rac-(2S)-4-amino-2-[[2-(4-cycloheptylphenyl)-4,6-dimethyl-pyrimidine-5-carbonyl]amino]butanoyl]amino]-10,13-dioxo-9,12-diazatricyclo[13.3.1.12,6]icosa-1(18),2(20),3,5,15(19),16-hexaene-8-carboxamide] | 0.13 µM
Cc1nc(-c2ccc(N3C[C@H](C)C[C@H](C)C3)cc2)nc(C)c1C(=O)N[C@@H](CCN)C(=O)N(C)[C@@H]1C(=O)N[C@@H](C)C(=O)N[C@H](C(=O)NCC#N)Cc2ccc(OCCN)c(c2)-c2cc1ccc2OCCN (racemic) [Compound 327, rac-(8S,11S,14S)-3,18-bis(2-aminoethoxy)-N-(cyanomethyl)-11-methyl-14-[methyl-[rac-(2S)-4-amino-2-[[4,6-dimethyl-2-[4-[rac (3S,5R)-3,5-dimethyl-1-piperidyl]phenyl]pyrimidine-5-carbonyl]amino]butanoyl]amino]-10,13-dioxo-9,12-diazatricyclo[13.3.1.12,6]icosa-1(18),2(20),3,5,15(19),16-hexaene-8-carboxamide] | 0.13 µM
CCCCOc1c(F)c(F)c(-c2nc(C)c(C(=O)N[C@@H](CCN)C(=O)N(C)[C@@H]3C(=O)N[C@@H](C)C(=O)N[C@H](C(=O)NCC#N)Cc4ccc(OCCN)c(c4)-c4cc3ccc4OCCN)c(C)n2)c(F)c1F (racemic) [Compound 351, rac-(8S,11S,14S)-3,18-bis(2-aminoethoxy)-N-(cyanomethyl)-11-methyl-14-[methyl-[rac-(2S)-4-amino-2-[[2-(4-butoxy-2,3,5,6-tetrafluoro-phenyl)-4,6-dimethyl-pyrimidine-5-carbonyl]amino]butanoyl]amino]-10,13-dioxo-9,12-diazatricyclo[13.3.1.12,6]icosa-1(18),2(20),3,5,15(19),16-hexaene-8-carboxamide] | 0.25 µM
Cc1nc(-c2ccc(OCCCCC(C)(C)C)cc2)nc(C)c1C(=O)N[C@@H](CCN)C(=O)N(C)[C@@H]1C(=O)N[C@@H](C)C(=O)N[C@H](C(=O)NCC#N)Cc2ccc(OCCN)c(c2)-c2cc1ccc2OCCN (racemic) [Compound 357, rac-(8S,11S,14S)-3,18-bis(2-aminoethoxy)-N-(cyanomethyl)-11-methyl-14-[methyl-[rac-(2S)-4-amino-2-[[2-[4-(5,5-dimethylhexoxy)phenyl]-4,6-dimethyl-pyrimidine-5-carbonyl]amino]butanoyl]amino]-10,13-dioxo-9,12-diazatricyclo[13.3.1.12,6]icosa-1(18),2(20),3,5,15(19),16-hexaene-8-carboxamide] | 0.19 µM

Same assay, conditions: Escherichia coli, ATCC25922, Table 6, cation adjusted Mueller Hinton Broth + 0.002% Tween-80, 35° C., 22 hours

SMILES | MIC
C=Cc1ccc(C#Cc2nc(C)c(C(=O)N[C@@H](CCN)C(=O)N(C)[C@@H]3C(=O)N[C@@H](C)C(=O)N[C@H](C(=O)NCC#N)Cc4ccc(OCCN)c(c4)-c4cc3ccc4OCCN)c(C)n2)cc1 (racemic) [Compound 310, rac-(8S,11S,14S)-3,18-bis(2-aminoethoxy)-N-(cyanomethyl)-11-methyl-14-[methyl-[rac-(2S)-4-amino-2-[[4,6-dimethyl-2-[2-(4-vinylphenyl)ethynyl]pyrimidine-5-carbonyl]amino]butanoyl]amino]-10,13-dioxo-9,12-diazatricyclo[13.3.1.12,6]icosa-1(18),2(20),3,5,15(19),16-hexaene-8-carboxamide] | 0.53 µM
Cc1nc(-c2ccc(OC3(C)CC3)cc2)nc(C)c1C(=O)N[C@@H](CCN)C(=O)N(C)[C@@H]1C(=O)N[C@@H](C)C(=O)N[C@H](C(=O)NCC#N)Cc2ccc(OCCN)c(c2)-c2cc1ccc2OCCN (racemic) [Compound 344, rac-(8S,11S,14S)-3,18-bis(2-aminoethoxy)-N-(cyanomethyl)-11-methyl-14-[methyl-[rac-(2S)-4-amino-2-[[4,6-dimethyl-2-[4-(1-methylcyclopropoxy)phenyl]pyrimidine-5-carbonyl]amino]butanoyl]amino]-10,13-dioxo-9,12-diazatricyclo[13.3.1.12,6]icosa-1(18),2(20),3,5,15(19),16-hexaene-8-carboxamide] | 0.38 µM
CCC1(Oc2ccc(-c3nc(C)c(C(=O)N[C@@H](CCN)C(=O)N(C)[C@@H]4C(=O)N[C@@H](C)C(=O)N[C@H](C(=O)NCC#N)Cc5ccc(OCCN)c(c5)-c5cc4ccc5OCCN)c(C)n3)cc2)CC1 (racemic) [Compound 345, rac-(8S,11S,14S)-3,18-bis(2-aminoethoxy)-N-(cyanomethyl)-11-methyl-14-[methyl-[rac-(2S)-4-amino-2-[[2-[4-(1-ethylcyclopropoxy)phenyl]-4,6-dimethyl-pyrimidine-5-carbonyl]amino]butanoyl]amino]-10,13-dioxo-9,12-diazatricyclo[13.3.1.12,6]icosa-1(18),2(20),3,5,15(19),16-hexaene-8-carboxamide] | 0.25 µM
Cc1nc(Oc2ccc(C(C)(C)C)cc2)nc(C)c1C(=O)N[C@@H](CCN)C(=O)N(C)[C@@H]1C(=O)N[C@@H](C)C(=O)N[C@H](C(=O)NCC#N)Cc2ccc(OCCN)c(c2)-c2cc1ccc2OCCN (racemic) [Compound 353, rac-(8S,11S,14S)-3,18-bis(2-aminoethoxy)-N-(cyanomethyl)-11-methyl-14-[methyl-[rac-(2S)-4-amino-2-[[2-(4-tert-butylphenoxy)-4,6-dimethyl-pyrimidine-5-carbonyl]amino]butanoyl]amino]-10,13-dioxo-9,12-diazatricyclo[13.3.1.12,6]icosa-1(18),2(20),3,5,15(19),16-hexaene-8-carboxamide] | 2 µM
Cc1cc(-c2ccc(C(C)(C)C)cc2)nc(C)c1C(=O)N[C@@H](CCN)C(=O)N(C)[C@@H]1C(=O)N[C@@H](C)C(=O)N[C@H](C(=O)NCC#N)Cc2ccc(OCCN)c(c2)-c2cc1ccc2OCCN (racemic) [Compound 358, rac-(8S,11S,14S)-3,18-bis(2-aminoethoxy)-N-(cyanomethyl)-11-methyl-14-[methyl-[rac-(2S)-4-amino-2-[[6-(4-tert-butylphenyl)-2,4-dimethyl-pyridine-3-carbonyl]amino]butanoyl]amino]-10,13-dioxo-9,12-diazatricyclo[13.3.1.12,6]icosa-1(18),2(20),3,5,15(19),16-hexaene-8-carboxamide] | 0.2 µM
